Source: patent US10501449B2 (priority 2018, dated 2019)

molecular target: hERG channels (Homo sapiens (Human), UniProt Q12809); assay: hERG Manual Patch Clamp Assay; type: cell-based; details: human, HEK 293 cells stably expressing hERG channels, pH 7.4, 1 uM, read-out: hERG EP % Inh @ 1 uM
Sequence (Q12809 whole entry): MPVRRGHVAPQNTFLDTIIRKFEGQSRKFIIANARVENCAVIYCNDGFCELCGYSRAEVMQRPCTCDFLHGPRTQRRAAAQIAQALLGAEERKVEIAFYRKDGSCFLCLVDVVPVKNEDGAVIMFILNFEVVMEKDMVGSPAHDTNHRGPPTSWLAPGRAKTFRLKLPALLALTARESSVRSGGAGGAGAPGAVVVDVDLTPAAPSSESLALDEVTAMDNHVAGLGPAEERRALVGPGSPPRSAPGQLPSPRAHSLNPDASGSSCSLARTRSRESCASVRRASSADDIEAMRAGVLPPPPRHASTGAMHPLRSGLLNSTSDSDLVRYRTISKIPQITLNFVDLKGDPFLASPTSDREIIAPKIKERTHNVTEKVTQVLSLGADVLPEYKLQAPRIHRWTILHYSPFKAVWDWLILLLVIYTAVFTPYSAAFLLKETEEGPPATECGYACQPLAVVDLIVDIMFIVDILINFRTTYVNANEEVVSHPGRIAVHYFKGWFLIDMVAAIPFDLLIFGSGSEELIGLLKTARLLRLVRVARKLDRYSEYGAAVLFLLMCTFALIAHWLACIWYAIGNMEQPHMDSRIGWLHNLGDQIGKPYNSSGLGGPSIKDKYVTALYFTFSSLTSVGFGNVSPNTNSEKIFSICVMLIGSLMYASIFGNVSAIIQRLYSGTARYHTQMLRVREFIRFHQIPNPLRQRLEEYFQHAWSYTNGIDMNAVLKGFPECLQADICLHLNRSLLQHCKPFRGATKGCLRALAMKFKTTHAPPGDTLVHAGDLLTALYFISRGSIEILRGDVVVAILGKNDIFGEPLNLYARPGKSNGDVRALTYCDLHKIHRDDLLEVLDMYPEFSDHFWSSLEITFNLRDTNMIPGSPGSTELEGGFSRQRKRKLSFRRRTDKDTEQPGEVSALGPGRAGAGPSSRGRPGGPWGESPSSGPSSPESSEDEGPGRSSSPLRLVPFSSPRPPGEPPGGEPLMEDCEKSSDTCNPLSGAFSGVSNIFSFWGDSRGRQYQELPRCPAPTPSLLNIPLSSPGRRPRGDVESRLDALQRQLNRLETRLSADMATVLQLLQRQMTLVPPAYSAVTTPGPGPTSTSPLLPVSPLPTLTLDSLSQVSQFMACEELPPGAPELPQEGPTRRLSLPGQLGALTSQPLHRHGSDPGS
Description: hERG electrophysiology assay: The experimental compounds were assessed for hERG activity on HEK 293 cells stably expressing hERG channels using patch clamp technique. Coverslips plated with hERG expressing cells were placed in the experimental chamber and were perfused with a solution composed of (in mM): 140 NaCl, 4 KCl, 1.8 CaCl2, 1 MgCl2, 10 Glucose, 10 HEPES (pH 7.4, NaOH) at room temperature. Borosilicate patch pipettes had tip resistances of 2-4 Mohms when filled with an internal solution containing: 130 KCl, 1 MgCl2, 1 CaCl2, 10 EGTA, 10 HEPES, 5 ATP-K2 (pH 7.2, KOH). The cells were clamped at −80 mV in whole cell configuration using an Axopatch 200B (Axon instruments, Union City, Calif.) patch clamp amplifier controlled by pClamp (Axon instruments) software. Upon formation of a gigaseal, the following voltage protocol was repeatedly (0.05 Hz) applied to record tail currents: depolarization step from −80 mV to +20 mV for 2 seconds followed by a hyperpolarization step to −65 mV (3 seconds) to elicit tail currents. Compounds were applied after stabilization of tail current. First, tail currents were recorded in presence of extracellular solution alone (control) and subsequently, in extracellular solution containing increasing compound concentrations. Each compound concentration was applied for 2-5 minutes. The percentage inhibition at each concentration was calculated as reduction in peak tail current with respect to the peak tail current recorded in the presence of control solution. Data analysis was performed in a custom made template. The percent inhibitions at different concentrations were plotted to obtain a concentration response curve, which was subsequently fitted with a four parameter equation to calculate hERG IC50 value.

SMILES	inhibition at 1 µM
Cc1cc(-n2cc(CN3CC(c4ccc5c(c4C)COC5=O)OC(C)(C)C3)cn2)ncc1C#N (single isomer, unassigned) [Example 256-II, 6-(4-((2,2-dimethyl-6-(4-methyl-1-oxo-1,3-dihydroisobenzofuran-5-yl)morpholino)methyl)-1H-pyrazol-1-yl)-4-methylnicotinonitrile]	13%
Cc1cc(-n2cnc(CN3C[C@@H](c4ccc5c(c4C)COC5=O)N[C@@H](C)C3)c2)ncc1C#N [Example 98-I, 4-methyl-6-(4-(((3S,5R)-3-methyl-5-(4-methyl-1-oxo-1,3-dihydroisobenzofur-an-5-yl)piperazin-1-yl)methyl)-1H-imidazol-1-yl)nicotinonitrile]	9.3%
Cc1c([C@@H]2CN(Cc3cnn(-c4ccc(C#N)nc4)c3)CCO2)ccc2c1COC2=O [Example 48-I, (R)-5-(4-((2-(4-methyl-1-oxo-1,3-dihydroiso-benzofuran-5-yl)morpho-lino)methyl)-1H-pyrazol-1-yl)picolinonitrile]	78%
Cc1cc(-n2cc(CN3CCNC(c4ccc5c(c4C)COC5=O)C3C)cn2)ncc1C#N (stereo not drawn) [Example 115-I, 4-methyl-6-(4-((2-methyl-3-(4-methyl-1-oxo-1,3-dihydroisobenzofuran-5-yl)piperazin-1-yl)methyl)-1H-pyrazol-1-yl)nicotinonitrile]	45%
Cc1c([C@@H]2CN(Cc3cnn(-c4cc(C(F)(F)F)c(C#N)cn4)c3)C[C@H](C)N2)ccc2c1COC2=O [Example 196-I, 6-(4-(((3S,5R)-3-methyl-5-(4-methyl-1-oxo-1,3-dihydroisobenzofuran-5-yl)piperazin-1-yl)methyl)-1H-pyraozl-1-yl)-4-(trifluoromethyl)nicotinonitrile]	18%
Cc1cn(-c2ccc(CN3CCN[C@H](c4ccc5c(c4C)COC5=O)C3)nn2)cn1 [Example 153-I, (R)-4-methyl-5-(4-((6-(4-methyl-1H-imidazol-1-yl)pyridazin-3-yl)methyl)piperazin-2-yl)isobenzofuran-1(3H)-one]	10%
COc1cc(N2CCC(CN3CCN[C@H](c4ccc5c(c4C)COC5=O)C3)C2)ncc1C#N (single isomer, unassigned) [Example 154-I]	43%
Cc1c([C@@H]2CN(Cc3cnc(-n4cnc(C(F)(F)F)c4)nc3)CCN2)ccc2c1COC2=O [Example 236-I, (R)-4-methyl-5-(4-((2-(4-(triflouromethyl)-1H-imidazol-1-yl)pyrimidin-5-yl)methyl)piperazin-2-yl)isobenzofuran-1(3H)-one]	20%
Cc1cc(-n2nc(C)c(CN3CCN[C@H](c4ccc5c(c4C)COC5=O)C3)n2)ncc1C#N [Example 169-I, (R)-4-methyl-6-(4-methyl-5-((3-(4-methyl-1-oxo-1,3-dihydroisobenzofuran-5-yl)piperazin-1-yl)methyl)-2H-1,2,3-triazol-2-yl)nicotinonitrile]	12%
COc1cc(-n2cc(CN3CCO[C@H](c4ccc5c(c4C)COC5=O)C3)cn2)ccc1C#N [Example 49-I, (R)-2-methoxy-4-(4-((2-(4-methyl-1-oxo-1,3-dihydroisobenzofuran-5-yl)morpholino)methyl)-1H-pyrazol-1-yl) benzonitrile]	27%
Cc1c([C@@H]2CN(Cc3cn(-c4ccnc(C(F)F)c4)c(=O)n3C)C[C@H](C)N2)ccc2c1COC2=O [Example 276-I, 1-(2-(difluoromethyl)pyridin-4-yl)-3-methyl-4-(((3S,5R)-3-methyl-5-(4-methyl-1-oxo-1,3-dihydroisobenzofuran-5-yl)piperazin-1-yl)methyl)-1,3-dihydro-2H-imidazol-2-one]	5.4%
[2H]C([2H])([2H])Oc1cc(-n2cc(CN3CCN[C@H](c4ccc5c(c4C)COC5=O)C3)nn2)ncc1C#N [Example 263-I, (R)-4-(methoxy-d3)-6-(4-((3-(4-methyl-1-oxo-1,3-dihydroisobenzofuran-5-yl)piperazin-1-yl)methyl)-1H-1,2,3-triazol-1-yl)nicotinonitrile]	10%
COc1cc(-n2cc(CN3CC(CO)NC(c4ccc5c(c4C)COC5=O)C3)cn2)ncc1C#N (single isomer, unassigned) [Example 89-III]	14%
Cc1cc(-n2cc(CN3CC(=O)N[C@H](c4ccc5c(c4C)COC5=O)C3)cn2)ncc1C#N [Example 15-I, (R)-4-methyl-6-(4-((3-(4-methyl-1-oxo-1,3-dihydroisobenzofuran-5-yl)-5-oxopiperazin-1-yl)methyl)-1H-pyrazol-1-yl)nicotinonitrile]	5.8%
COc1cc(-n2ncc(CN3CC[C@@H](O)[C@H](c4ccc5c(c4C)COC5=O)C3)n2)ncc1C#N [Example 111-I, 6-(4-(((3R,4R)-4-hydroxy-3-(4-methyl-1-oxo-1,3-dihydroisobenzofur-an-5-yl)piperidin-1-yl)methyl)-2H-1,2,3-triazol-2-yl)-4-methoxynicotinonit-rile]	5.1%

molecular target: hROMK (human Kir1.1) (Homo sapiens (Human), UniProt P48048); assay: cell-based; details: CHO T-Rex hROMK stable cell line; thallium flux; 10-point concentration response curve; read-out: Human ROMK Th Flux IC50
Sequence (P48048 whole entry): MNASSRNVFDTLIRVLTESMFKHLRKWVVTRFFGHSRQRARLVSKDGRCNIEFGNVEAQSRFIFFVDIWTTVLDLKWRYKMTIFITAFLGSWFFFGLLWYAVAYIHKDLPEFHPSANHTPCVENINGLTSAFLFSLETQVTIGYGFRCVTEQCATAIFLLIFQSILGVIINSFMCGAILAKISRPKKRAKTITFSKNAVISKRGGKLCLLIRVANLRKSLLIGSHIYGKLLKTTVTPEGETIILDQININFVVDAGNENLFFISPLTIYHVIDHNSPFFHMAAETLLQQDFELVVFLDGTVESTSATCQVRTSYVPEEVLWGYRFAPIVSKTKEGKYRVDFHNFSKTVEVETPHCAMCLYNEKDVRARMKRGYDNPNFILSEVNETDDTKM

SMILES	IC50
Cc1c([C@@H]2CN(Cc3nnc(-c4ccc(C#N)cn4)o3)CCO2)ccc2c1COC2=O [Example 12-I, (R)-6-(5-((2-(4-methyl-1-oxo-1,3-dihydroisobenzofuran-5-yl)morpholino)methyl)-1,3,4-oxadiazol-2-yl)nicotinonitrile]	530 nM
Cc1c([C@@H]2CN(Cc3cnn(-c4ccsc4)c3)CCO2)ccc2c1COC2=O [Example 38-I, (R)-4-methyl-5-(4-((1-(thiophen-3-yl)-1H-pyrazol-4-yl)methyl)morpholin-2-yl)isobenzo-furan-1(3H)-one]	3400 nM
COc1cc(-c2ccc(CN3CC(=O)N[C@H](c4ccc5c(c4C)COC5=O)C3)cn2)ncc1C#N [Example 74-I, (R)-4-methoxy-5′-((3-(4-methyl-1-oxo-1,3-di-hydroisobenzofuran-5-yl)-5-oxopiperazin-1-yl)methyl)-[2,2′-bi-pyridine]-5-carbonitrile]	570 nM
COc1cc(N2CC(CN3C[C@@H](c4ccc5c(c4C)COC5=O)N[C@@H](C)C3)CC2=O)ccn1 (stereo partly drawn) [Example 254-I, 1-(2-methoxypyridin-4-yl)-4-(((3S,5R)-3-methyl-5-(4-methyl-1-oxo-1,3-dihydroisobenzofuran-5-yl)piperazin-1-yl)methyl)pyrrolidin-2-one]	1600 nM
Cc1ncc(-n2cc(CN3CCO[C@H](c4ccc5c(c4C)COC5=O)C3)cn2)s1 [Example 7-I, (R)-4-methyl-5-(4-((1-(2-methylthiazol-5-yl)-1H-pyrazol-4-yl)methyl)morpholin-2-yl) isobenzofuran-1(3H)-one]	1000 nM
Cc1c([C@@H]2CN(Cc3cnn(-c4ccc5oc(=O)n(C)c5c4)c3)C(=O)O2)ccc2c1COC2=O [Example 80-I, (R)-3-methyl-5-(4-((5-(4-methyl-1-oxo-1,3-dihydroisobenzofuran-5-yl)-2-oxooxazolidin-3-yl)methyl)-1H-pyrazol-1-yl)benzo[d]oxazol-2(3H)-one]	490 nM
Cc1cc(-n2cc(CN3CCC(=O)C(c4ccc5c(c4C)COC5=O)C3)cn2)ncc1C#N (stereo not drawn) [Example 232-I, 4-methyl-6-(4-((3-(4-methyl-1-oxo-1,3-dihydroisobenzofuran-5-yl)-4-oxopiperidin-1-yl)methyl)-1H-pyrazol-1-yl)nicotinonitrile]	480 nM
COc1cc(-n2cnc(CN3CC[C@@H](O)[C@H](c4ccc5c(c4C)COC5=O)C3)c2)ccc1C#N [Example 162-I, 4-(4-(((3R,4R)-4-hydroxy-3-(4-methyl-1-oxo-1,3-dihydroisobenzofuran-5-yl)piperidin-1-yl)methyl)-1H-imidazol-1-yl)-2-methoxybenzonitrile]	260 nM
Cc1c([C@@H]2CN(Cc3cnn(-c4ccc(S(C)(=O)=O)cc4)c3)CCO2)ccc2c1COC2=O [Example 45-I, (R)-4-methyl-5-(4-((1-(4-(methylsulfonyl)phenyl)-1H-pyrazol-4-yl)methyl)morpholin-2-yl)isobenzofuran-1(3H)-one]	370 nM
Cc1cc(-n2cnc(CN3C[C@@H](c4ccc5c(c4C)COC5=O)N[C@@H](C)C3)c2)cc(C)n1 [Example 181-I, 5-((2R,6S)-4-((1-(2,6-dimethylpyridin-4-yl)-1H-imidazol-4-yl)methyl)-6-methylpiperazin-2-yl)-4-methylisobenzofuran-1(3H)-one]	150 nM
COc1cc(-n2cc(CN3CCN[C@H](c4ccc5c(c4C)COC5=O)C3)c(C(N)=O)n2)ncc1C#N [Example 262-I, (R)-1-(5-cyano-4-methoxypyridin-2-yl)-4-((3-(4-methyl-1-oxo-1,3-dihydroisobenzofuran-5-yl)piperazin-1-yl)methyl)-1H-pyrazole-3-carboxamide]	120 nM
Cc1c([C@@H]2CN(C(=O)c3cnc(-c4ccc5oc(=O)n(C)c5c4)s3)CCO2)ccc2c1COC2=O [Example 20-I, (R)-3-methyl-5-(5-(2-(4-methyl-1-oxo-1,3-dihydroisobenzofuran-5-yl)morpholine-4-carbonyl)thiazol-2-yl)benzo[d]oxazol-2(3H)-one]	490 nM
Cc1c([C@@H]2CN(Cc3cnn(-c4cnccn4)c3)CCO2)ccc2c1COC2=O [Example 39-I, (R)-4-methyl-5-(4-((1-(pyrazin-2-yl)-1H-pyrazol-4-yl)methyl)morpholin-2-yl)isobenzo-furan-1(3H)-one]	770 nM
Cc1cncc(-n2cc(CN3CCO[C@H](c4ccc5c(c4C)COC5=O)C3)cn2)n1 [Example 41-I, (R)-4-methyl-5-(4-((1-(6-methylpyrazin-2-yl)-1H-pyrazol-4-yl)methyl)morpholin-2-yl) isobenzofuran-1(3H)-one]	980 nM
COc1cc(-c2ccc(CN3C[C@@H](c4ccc5c(c4C)COC5=O)OC3=O)cn2)ncc1C#N [Example 17-I, (R)-4-methoxy-5′-((5-(4-methyl-1-oxo-1,3-dihydroisobenzofuran-5-yl)-2-oxooxazolidin-3-yl)methyl)-[2,2′-bipyridine]-5-carbonitrile]	900 nM
